Measurements published in patent US20080181866A1, “Amido Anti-viral Compounds” (Genelabs Technologies, Inc., priority 2006, published 2008).

These compounds were tested on HCV replication (assay: HCV replicon assay (luciferase) in ET (Huh-lucubineo-ET) cell line). Conditions: Hepatitis C virus, tested at 5 μM; ET replicon cells; luciferase activity measured 48-72 hours later; relative to no compound control.
Type: cell-based
Protocol: A cell line, ET (Huh-lucubineo-ET) was used for screening of compounds of the present invention for inhibiting HCV replication. The ET cell line was stably transfected with RNA transcripts harboring a I389luc-ubi-neo/NS3-3′/ET; replicon with firefly luciferase-ubiquitin-neomycin phosphotransferase fusion protein and EMCV-IRES driven NS3-5B polyprotein containing the cell culture adaptive mutations (E1202G; T12801; K1846T) (Krieger at al, 2001 and unpublished). The ET cells were grown in DMEM (Dulbeco's Modified Eagle's Medium), supplemented with 10% fetal calf serum, 2 mM Glutamine, Penicillin (100 IU/mL)/Streptomycin (100 μg/mL), 1× nonessential amino acids, and 250 μg/mL G418 (“Geneticin”). They were all available through Life Technologies (Bethesda, Md.). The cells were plated at 0.5-1.0×10^4 cells/well in the 96 well plates and incubated for 24 hrs before adding testing compounds. Then the compounds were added to the cells to achieve a final concentration of 0.1 nM to 50 μM and a final DMSO concentration of 0.5%. Luciferase activity were measured 48-72 hours later by adding a lysis buffer and the substrate (Catalog number Glo-lysis buffer E2661 and Bright-Glo luciferase system E2620 Promega, Madison, Wis.). Cells should not be too confluent during the assay. Percent inhibition of replication was plotted relative to no compound control. Under the same condition, cytotoxicity of the compounds was determined using cell proliferation reagent, WST-1 (Roche, Germany). The compounds showing antiviral activities, but no significant cytotoxicities were chosen to determine EC50 and TC50. For these determinations, a 10 point 2-fold serial dilution for each compound was used, which spans a concentration range of 1000 fold. EC50 and similarly TC50 values were calculated by fitting % inhibition at each concentration to the following equation:
% inhibition=100%/[(IC50/[I])^b+1]
where b is Hill's coefficient.
In some preferred embodiments compounds of Formula I will have a % inhibition of at least 20% when tested at 5 μM. In other embodiments the compounds of Formula I will have a % inhibition of at least 50% when tested at 5 μM.
Work on `CCCC(C)C(=O)N1C(C2CCOCC2)SC[C@H]1C(=O)Nc1nc(-c2ccc(C(=O)NC3CC3)cc2)cs1` (stereo in doubt) [Compound 7103, 3-(2-Methyl-pentanoyl)-2-(tetrahydro-pyran-4-yl)-thiazolidine-4-carboxylic acid [4-(4-cyclopropylcarbamoyl-phenyl)-thiazol-2-yl]-amide] yielded an inhibition at 5 µM of 99.8%.
Work on `O=C(Cc1ccc(NC(=O)[C@@H]2CSC(c3ccncc3)N2C(=O)OCc2ccccc2)cc1)NCc1ccccc1` (stereo in doubt) [Compound 7105, 4-[4-(Benzylcarbamoyl-methyl)-phenylcarbamoyl]-2-pyridin-4-yl-thiazolidine-3-carboxylic acid benzyl ester] yielded an inhibition at 5 µM of 74.2%.
`O=C(Nc1ccccc1)c1cccc(NC(=O)[C@@H]2CSC(c3ccncc3)N2C(=O)OCc2ccccc2)c1` (stereo in doubt) [Compound 7112, 4-(3-Phenylcarbamoyl-phenylcarbamoyl)-2-pyridin-4-yl-thizolidine-3-carboxylic acid benzyl ester] gave an inhibition at 5 µM of 64.2%.
Compound `O=C(NCCc1ccccc1)c1ccc(NC(=O)[C@@H]2CSC(c3ccncc3)N2C(=O)OCc2ccccc2)cc1` (stereo in doubt) [Compound 7113, 4-(4-Phenethylcarbamoyl-phenylcarbamoyl)-2-pyridin-4-yl-thiazolidine-3-carboxylic acid benzyl ester] has an inhibition at 5 µM of 86.5%.
Compound `O=C(Cc1cccc(NC(=O)[C@@H]2CSC(c3ccncc3)N2C(=O)OCc2ccccc2)c1)NCc1ccc(Cl)cc1` (stereo in doubt) [Compound 7115, 4-{3-[(4-Chloro-benzylcarbamoyl)-methyl]-phenylcarbamoyl}-2-pyridin-4-yl-thiazolidine-3-carboxylic acid benzyl ester] has an inhibition at 5 µM of 98%.
Work on `CN(C)c1ncc(C2SC[C@@H](C(=O)Nc3nc(-c4ccc(C(=O)NC5CC5)cc4)cs3)N2C(=O)OCc2ccccc2)cn1` (stereo in doubt) [Compound 7131, 4-[4-(4-Cyclopropylcarbamoyl-phenyl)-thiazol-2-ylcarbamoyl]-2-(2-dimethylamino-pyrimidin-5-yl)-thiazolidine-3-carboxylic acid benzyl ester] yielded an inhibition at 5 µM of 100%.
For `COCCNC(=O)c1ccc(NC(=O)[C@@H]2CSC(c3ccncc3)N2C(=O)OCc2ccccc2)cc1` (stereo in doubt) [Compound 7135, 4-[4-(2-Methoxy-ethylcarbamoyl)-phenylcarbamoyl]-2-pyridin-4-yl-thiazolidine-3-carboxylic acid benzyl ester], the inhibition at 5 µM was 22.1%.
For `COc1ccc(Cc2cnc(NC(=O)[C@@H]3CSC(c4ccncc4)N3C(=O)OCc3ccccc3)s2)cc1` (stereo in doubt) [Compound 7137, 4-[5-(4-Methoxy-benzyl)-thiazol-2-ylcarbamoyl]-2-pyridin-4-yl-thiazolidine-3-carboxylic acid benzyl ester], the inhibition at 5 µM was 17.1%.
`O=C(NC1CC1)c1ccc(-c2csc(NC(=O)[C@@H]3Cc4ccccc4CN3C(=O)OCc3ccccc3)n2)cc1` [Compound 7002, (S)-3-[4-(4-Cyclopropylcarbamoyl-phenyl)-thiazol-2-ylcarbamoyl]-3,4-dihydro-1H-isoquinoline-2-carboxylic acid benzyl ester] gave an inhibition at 5 µM of 97.5%.
`O=C(NC1CC1)c1ccc(-c2csc(NC(=O)[C@@H]3CC[C@H](c4ccncc4)N3C(=O)OCc3ccccc3)n2)cc1` [Compound 7003, (2S,5R)-2-[4-(4-Cyclopropylcarbamoyl-phenyl)-thiazol-2-ylcarbamoyl]-5-pyridin-4-yl-pyrrolidine-1-carboxylic acid benzyl ester] gave an inhibition at 5 µM of 100%.
With `CC(C)(C)OC(=O)N1[C@@H](c2ccccc2)CC[C@H]1C(=O)Nc1nc(-c2ccc(C(=O)NC3CC3)cc2)cs1` [Compound 7005, (2S,5R)-2-[4-(4-Cyclopropylcarbamoyl-phenyl)-thiazol-2-ylcarbamoyl]-5-phenyl-pyrrolidine-1-carboxylic acid tert-butyl ester] the inhibition at 5 µM was 97.8%.
With `O=C(NC1CC1)c1ccc(-c2csc(NC(=O)[C@@H]3C[C@@H](Cc4ccccc4)CN3C(=O)OCc3ccccc3)n2)cc1` [Compound 7006, (2S,4R)-4-Benzyl-2-[4-(4-cyclopropylcarbamoyl-phenyl)-thiazol-2-ylcarbamoyl]-pyrrolidine-1-carboxylic acid benzyl ester] the inhibition at 5 µM was 98.4%.
Compound `O=C(NC1CC1)c1ccc(-c2csc(NC(=O)[C@@H]3CS[C@@H](c4cccnc4)N3C(=O)OCc3ccccc3)n2)cc1` [Compound 7009, (2S,4R)-4-[4-(4-Cyclopropylcarbamoyl-phenyl)-thiazol-2-ylcarbamoyl]-2-pyridin-3-yl-thiazolidine-3-carboxylic acid benzyl ester] has an inhibition at 5 µM of 99.9%.
`O=C(NC1CC1)c1ccc(-c2csc(NC(=O)[C@@H]3CSC(c4ccccn4)N3C(=O)OCc3ccccc3)n2)cc1` (stereo partly drawn) [Compound 7010, (R)-4-[4-(4-Cyclopropylcarbamoyl-phenyl)-thiazol-2-ylcarbamoyl]-2-pyridin-2-yl-thiazolidine-3-carboxylic acid benzyl ester] gave an inhibition at 5 µM of 98.1%.
Compound `O=C(NC1CC1)c1ccc(-c2csc(NC(=O)[C@@H]3COC(c4ccncc4)N3C(=O)OCc3ccccc3)n2)cc1` (stereo partly drawn) [Compound 7011, (S)-4-[4-(4-Cyclopropylcarbamoyl-phenyl)-thiazol-2-ylcarbamoyl]-2-pyridin-4-yl-oxazolidine-3-carboxylic acid benzyl ester] has an inhibition at 5 µM of 98.8%.
`O=C(NC1CCCC1)c1ccc(-c2csc(NC(=O)[C@@H]3CSC(c4ccncc4)N3C(=O)OCc3ccccc3)n2)cc1` (stereo partly shown) [Compound 7012, 4-[4-(4-Cyclopentylcarbamoyl-phenyl)-thiazol-2-ylcarbamoyl]-2-pyridin-4-yl-thiazolidine-3-carboxylic acid benzyl ester] was tested, and the inhibition at 5 µM was 98.8%.
With `O=C(Nc1ccccc1)[C@@H]1CSC(c2cccnc2)N1C(=O)OCc1ccccc1` (stereo partly shown) [Compound 7018, 4-Phenylcarbamoyl-2-pyridin-3-yl-thiazolidine-3-carboxylic acid benzyl ester] the inhibition at 5 µM was 47.6%.
`O=C(NC1CC1)c1ccc(-c2csc(NC(=O)C3Cc4ccccc4N3C(=O)OCc3ccccc3)n2)cc1` (stereo not shown) [Compound 7019, 2-[4-(4-Cyclopropylcarbamoyl-phenyl)-thiazol-2-ylcarbamoyl]-2,3-dihydro-indole-1-carboxylic acid benzyl ester] was tested, and the inhibition at 5 µM was 98.3%.
With `CC(C)(C)OC(=O)N1c2ccccc2C[C@H]1C(=O)Nc1nc(-c2ccc(C(=O)NC3CC3)cc2)cs1` [Compound 7020, (S)-2-[4-(4-Cyclopropylcarbamoyl-phenyl)-thiazol-2-ylcarbamoyl]-2,3-dihydro-indole-1-carboxylic acid tert-butyl ester] the inhibition at 5 µM was 99.5%.
In the case of `O=C(Nc1nc(-c2ccccc2)cs1)[C@@H]1Cc2ccccc2N1C(=O)OCc1ccccc1` [Compound 7023, (S)-2-(4-Phenyl-thiazol-2-ylcarbamoyl)-2,3-dihydro-indole-1-carboxylic acid benzyl ester], the inhibition at 5 µM is reported as 78.5%.
Work on `CC1SC[C@@H](C(=O)Nc2nc(-c3ccc(C(=O)NC4CC4)cc3)cs2)N1C(=O)OCc1ccccc1` (stereo partly drawn) [Compound 7024, (R)-4-[4-(4-Cyclopropylcarbamoyl-phenyl)-thiazol-2-ylcarbamoyl]-2-methyl-thiazolidine-3-carboxylic acid benzyl ester] yielded an inhibition at 5 µM of 99.7%.
With `O=C(Nc1nc(-c2ccccc2)cs1)[C@@H]1CSC(c2ccncc2)N1C(=O)OCc1ccccc1` (stereo partly shown) [Compound 7026, 4-(4-Phenyl-thiazol-2-ylcarbamoyl)-2-pyridin-4-yl-thiazolidine-3-carboxylic acid benzyl ester] the inhibition at 5 µM was 89.1%.
In the case of `CC(C)(C)OC(=O)N1C[C@@H](c2ccccc2)C[C@H]1C(=O)Nc1nc(-c2ccc(C(=O)NC3CC3)cc2)cs1` [Compound 7027, (2S,4R)-2-[4-(4-Cyclopropylcarbamoyl-phenyl)-thiazol-2-ylcarbamoyl]-4-phenyl-pyrrolidine-1-carboxylic acid tert-butyl ester], the inhibition at 5 µM is reported as 6.9%.
Compound `O=C(NC1CC1)c1ccc(-c2csc(NC(=O)[C@@H]3CS[C@H](c4cccnc4)N3C(=O)OCc3ccccc3)n2)cc1` [Compound 7028, (2R,4R)-4-[4-(4-Cyclopropylcarbamoyl-phenyl)-thiazol-2-ylcarbamoyl]-2-pyridin-3-yl-thiazolidine-3-carboxylic acid benzyl ester] has an inhibition at 5 µM of 100%.
For `CC(C)(C)OC(=O)N1C[C@H](c2ccccc2)C[C@H]1C(=O)Nc1nc(-c2ccc(C(=O)NC3CC3)cc2)cs1` [Compound 7038, (2S,4S)-2-[4-(4-Cyclopropylcarbamoyl-phenyl)-thiazol-2-ylcarbamoyl]-4-phenyl-pyrrolidine-1-carboxylic acid tert-butyl ester], the inhibition at 5 µM was 48.4%.
